Source: US6387934B1, “2-Cyano-3,5-dihydroxyhex-2-enecarboxamide derivatives” (Aventis Pharma Deutschland GmbH, priority 1996, dated 2002)
Structures can show the parent of a compound that is named as a salt.

Key:
[1] = test system: IL-1-induced chondrocytic chondrolysis; test: Modulation of the IL-1-induced chondrocytic chondrolysis (chondrolysis compensation); format: cell-based, bulls; conditions: stimulation factor = proteoglycan content with active compound / IL-1-treated control; interleukin-1 for 8 days, 35S-sulfate incorporation 24 hours; factor >1 = stimulation
Experimental: (§1) Cartilage cells can maintain their characteristic cartilage matrix metabolism ex vivo in suitable cell or tissue culture, i.e. the controlled synthesis and degradation of the matrix macromolecules, over a period of several weeks to months. These processes can be chemically influenced. […] In both assays, the stimulating action of the test substance is expressed by a stimulation factor which is calculated from the quotient of the specific proteoglycan content under the active compound condition divided by the proteoglycan content under the control condition. In Experiment A, the control condition is the untreated control group and in experimental procedure B this is the interleukin-1 (IL-1)-treated control group. A factor=1 can thus identify no action, a factor of >1 points to a stimulation and a factor of <1 to an inhibitory action.
B) Modulation of the IL-1-induced Chondrocytic Chondrolysis (Chondrolysis Compensation)
Cell preparation was carried out as described under A), if cartilage tissue explants are used these are added directly to the enriched culture medium described above after stamping out cartilage disks of 4 mm diameter and a depth which includes the entire cartilage layer. After adaptation for 5 days, interleukin-1 is added to the medium, 8 units/well for the cell culture, 20 units/well for the tissue culture, and, over the treatment period of 8 days, likewise added again every second day on changing the medium. At the end of the experiments, 1 μCi of Na2^35SO4/well is added and the mixture is incubated for 24 hours. After removing the supernatant, the remaining gels or explants are broken down in the microtiter plates by repeated deepfreezing and thawing and extracted with 8 M guanidine hydrochloride. After centrifugation, the supernatant is separated on a PD10 Sephadex column into free and incorporated sulfate and the radioactivity of the samples, which is a measure of the amount of proteoglycan newly formed, is determined in a β counter.

[2] = test system: chondrocytic proteoglycan metabolism; test: Modulation of the chondrocytic proteoglycan metabolism (PG stimulation); format: cell-based, bulls; conditions: stimulation factor = proteoglycan content with active compound / untreated control, 10 μm test substance, 8 days, chondrocytes in agarose, Alcian Blue extinction at 610 nm, factor >1 = stimulation; for fold induction at 10 µM: Chondrocyte, 192 h
Experimental: as §1
A) Modulation of the chondrocytic proteoglycan metabolism (PG stimulation)
Cartilage samples are taken under sterile conditions from fetlock joints of freshly slaughtered bulls, incubated with 1% strength pronase (Boehringer) solution in Ham's F12 medium (Serva) at 37° C. for 1 hour, and the enzyme solution is replaced by a 0.025% strength collagenase type A (Worthington) solution in medium and incubated overnight. After filtering through a 50 μm nylon filter, centrifugation, resuspension and vitality testing, a cell suspension of 4×10^6 cells/ml of medium, enriched with 20% fetal calf serum, is prepared and mixed at approximately 38° C. with 2% strength low-melting agarose (Seplaque) in the ratio 1:1 and 0.1 ml of this is pipetted into each well of a 24 well microtiter plate. After gelling, the samples are covered with a layer of 0.5 ml/well of medium, which is enriched with 5% serum, 25 μm/ml of ascorbic acid, and in groups of up to 6-8 wells with 10 μm of the test substance. The medium in a constant composition is renewed every second day for a treatment period of 8 days. At the end of the treatment, washing is carried out with medium, 1 ml of a buffered (pH 5.6) 1% strength Alcian Blue (Sigma) solution, enriched with 25% strength glutaraldehyde in the ratio 7:1, per well is added and the mixture is incubated for 48 hours. After washing and differentiating with 3% strength acetic acid, dehydration is carried out up to 70% strength ethanol content by means of the rising alcohol series, and then the bound dye is extracted at 4° C. for 24 hours using 8 M guanidine hydrochloride. The stoichiometric binding of the Alcian Blue to the chondroitin sulfate side chains of the proteoglycans allows a quantification of the enriched matrix via the determination of the extinction of the dye solution at 610 nm.

| Structure (SMILES) | melting point [°C] | Chondrolysis compensation [1] | fold induction at 10 µM [2] | PG stimulation [2] |
| --- | --- | --- | --- | --- |
| CC(C)(O)C/C(O)=C(\C#N)C(=O)Nc1ccccc1 [Example 1, N-(Phenyl)-2-cyano-3,5-dihydroxy-5-methylhex-2-enecarboxamide] | 103 | 1.4 |  |  |
| CC(C)(O)C/C(O)=C(\C#N)C(=O)Nc1ccc(C(F)(F)F)cc1 [Example 2] | 155 | 1.9 | 1.8 |  |
| CC(C)(O)C/C(O)=C(\C#N)C(=O)NCc1ccccc1 [Example 3] |  | 1.5 |  |  |
| CC(C)(O)C/C(O)=C(\C#N)C(=O)NCCc1ccccc1 [Example 4] | 81 | 1.5 |  |  |
| CC(O)C/C(O)=C(\C#N)C(=O)Nc1ccccc1 (centres unmarked) [Example 5] | 101 | 1.8 |  |  |
| CC(O)C/C(O)=C(\C#N)C(=O)NCc1ccccc1 (centres unmarked) [Example 6] |  | 1.9 |  |  |
| CC(O)C/C(O)=C(\C#N)C(=O)NCCc1ccccc1 (centres unmarked) [Example 7] | 91 | 1.3 |  |  |
| CC(O)C/C(O)=C(\C#N)C(=O)Nc1ccc(Cl)cc1 (centres unmarked) [Example 8] | 152 | 2.1 |  |  |
| CC(O)C/C(O)=C(\C#N)C(=O)Nc1ccc(C(F)(F)F)cc1 (centres unmarked) [Example 9] |  | 1.6 | 1.5 |  |
| C[C@@H](O)C/C(O)=C(\C#N)C(=O)Nc1ccc(C(F)(F)F)cc1 [Example 10a, N-(4-Trifluoromethylphenyl)-2-cyano-3,5-dihydroxyhex-2-enecarboxamide Lysinium Salt, R Isomer] |  | 1.1 |  |  |
| C[C@H](O)C/C(O)=C(\C#N)C(=O)Nc1ccc(C(F)(F)F)cc1 [Example 10b, N-(4-Trifluormethylphenyl)-2-cyano-3,5-dihydroxyhex-2-enecarboxamide Lysinium Salt, S-isomer] |  | 1.7 |  |  |
| Cc1cc(NC(=O)/C(C#N)=C(\O)CC(O)c2ccccc2)ccc1Cl (centres unmarked) [Example 13] | 165 | 1.1 |  |  |
| N#C/C(C(=O)Nc1ccc(C(F)(F)F)cc1)=C(/O)CC(O)c1ccc(OCc2ccccc2)cc1 (centres unmarked) [Example 15] |  | 1.2 |  |  |
| N#C/C(C(=O)Nc1ccc(C(F)(F)F)cc1)=C(/O)CC(O)c1ccc2c(c1)OCO2 (centres unmarked) [Example 19] |  | 1.3 | 1.1 |  |
| N#C/C(C(=O)Nc1ccc(C(F)(F)F)cc1)=C(/O)CC(O)c1ccco1 (centres unmarked) [Example 22] |  | 1.9 | 1.1 |  |
| N#C/C(C(=O)Nc1ccc(C(F)(F)F)cc1)=C(/O)CC(O)c1cccs1 (centres unmarked) [Example 24] |  | 1.9 |  |  |
| C=C(C)C(O)C/C(O)=C(\C#N)C(=O)Nc1ccc(C(F)(F)F)cc1 (centres unmarked) [Example 28] |  |  | 1.1 |  |
| CC(C)=CC(O)C/C(O)=C(\C#N)C(=O)Nc1ccc(C(F)(F)F)cc1 (centres unmarked) [Example 29] |  | 1.7 | 1.1 |  |
| CC(C)=CCC/C(C)=C/C(O)C/C(O)=C(\C#N)C(=O)Nc1ccc(C(F)(F)F)cc1 (centres unmarked) [Example 30] | 114 to 116 | 1.3 |  |  |
| CCCCC(C)(O)C/C(O)=C(\C#N)C(=O)Nc1ccc(C(F)(F)F)cc1 (centres unmarked) [Example 31] |  | 1.6 |  |  |
| CC(O)(C/C(O)=C(\C#N)C(=O)Nc1ccc(C(F)(F)F)cc1)C1CC1 (centres unmarked) [Example 32] |  | 1.8 | 1.1 |  |
| N#C/C(C(=O)Nc1ccc(C(F)(F)F)cc1)=C(/O)CC(O)C1CC1 (centres unmarked) [Example 33] |  | 1.9 |  |  |
| N#C/C(C(=O)Nc1ccc(C(F)(F)F)cc1)=C(/O)CC(=O)O [Example 36] |  | 1.8 |  |  |
| CC(O)C/C(O)=C(\C#N)C(=O)Nc1ccc(C(F)(F)F)cc1 (centres unmarked) [Example 37, N-(4-Trifluoromethylphenyl)-2-cyano-3,5-dihydroxyhex-2-carboxamide Lysinium Salt] |  | 1.9 |  | 1.1 |
| CC(C)(O)C/C(O)=C(\C#N)C(=O)Nc1ccc(C(F)(F)F)cc1 [Example 38] | 145 to 148 | 1.8 |  |  |

Second part, led by results:

| melting point [°C] | Structure (SMILES) | Chondrolysis compensation [1] | fold induction at 10 µM [2] | PG stimulation [2] |
| --- | --- | --- | --- | --- |
| 156 | C[C@@H](O)C/C(O)=C(\C#N)C(=O)Nc1ccc(C(F)(F)F)cc1 (as salt: salt) [Example 10a, N-(4-Trifluoromethylphenyl)-2-cyano-3,5-dihydroxyhex-2-enecarboxamide Lysinium Salt, R Isomer] |  |  |  |
| 157 | C[C@H](O)C/C(O)=C(\C#N)C(=O)Nc1ccc(C(F)(F)F)cc1 (as salt: salt) [Example 10b, N-(4-Trifluormethylphenyl)-2-cyano-3,5-dihydroxyhex-2-enecarboxamide Lysinium Salt, S-isomer] |  |  |  |
| 135 to 138 | CC(O)C/C(O)=C(\C#N)C(=O)Nc1ccc(C(F)(F)F)cc1 (centres unmarked) (as salt: salt) [Example 37, N-(4-Trifluoromethylphenyl)-2-cyano-3,5-dihydroxyhex-2-carboxamide Lysinium Salt] |  |  |  |
| 170 to 171 | Cc1ccc(C(O)C/C(O)=C(\C#N)C(=O)Nc2ccc(C(F)(F)F)cc2)cc1 (centres unmarked) [Example 11] |  |  |  |
| 178 | N#C/C(C(=O)Nc1ccc(Cl)cc1)=C(/O)CC(O)c1ccccc1 (centres unmarked) [Example 12] |  |  |  |
| 180 | Cc1ccc(C(O)C/C(O)=C(\C#N)C(=O)Nc2ccc(C(F)(F)F)cc2)cc1 (centres unmarked) [Example 14] |  |  |  |
| 180 | N#C/C(C(=O)Nc1ccc(C(F)(F)F)cc1)=C(/O)CC(O)c1ccc(C#N)cc1 (centres unmarked) [Example 16] | 1.1 |  |  |
| 178 | N#C/C(C(=O)Nc1ccc(C(F)(F)F)cc1)=C(/O)CC(O)c1ccc(C(F)(F)F)cc1 (centres unmarked) [Example 17] |  |  |  |
| 154 | COc1cc(C(O)C/C(O)=C(\C#N)C(=O)Nc2ccc(C(F)(F)F)cc2)cc(OC)c1OC (centres unmarked) [Example 18] | 1.2 | 1.1 |  |
| 203 | N#C/C(C(=O)Nc1ccc(C(F)(F)F)cc1)=C(/O)CC(O)c1ccncc1 (centres unmarked) [Example 20] |  |  |  |
| 203 | N#C/C(C(=O)Nc1ccc(C(F)(F)F)cc1)=C(/O)CC(O)c1cccnc1 (centres unmarked) [Example 21] | 1.3 | 1.2 |  |
| 146 | N#C/C(C(=O)Nc1ccc(C(F)(F)F)cc1)=C(/O)CC(O)c1ccoc1 (centres unmarked) [Example 23] | 1.9 |  |  |
| 168 to 172 | N#C/C(C(=O)Nc1ccc(C(F)(F)F)cc1)=C(/O)CC(O)/C=C/c1ccccc1 (centres unmarked) [Example 25] |  |  |  |
| 168 | N#C/C(C(=O)Nc1ccc(C(F)(F)F)cc1)=C(/O)CC(O)C#Cc1ccccc1 (centres unmarked) [Example 26] | 1.9 |  |  |
| 141 | C=CC(O)C/C(O)=C(\C#N)C(=O)Nc1ccc(C(F)(F)F)cc1 (centres unmarked) [Example 27] | 1.6 | 1.7 |  |
| 133 to 135 | C=CC(O)C/C(O)=C(\C#N)C(=O)Nc1ccc(C(F)(F)F)cc1 (centres unmarked) [Example 39] | 1.6 |  | 1.7 |
